Reference: patent US12521390B2, “Dosage forms for Tyk2 inhibitors” (Bristol-Myers Squibb Company, priority 2019, dated 2026)

Columns and labels:
[1] = Solubility of BMS-986165 crystalline free base as a function of pH; type: physicochemical; details: pHs>4
[2] = Chemical stability (related substances) of BMS-986165:HPMCAS-H SDDs on storage; type: physicochemical; details: API standard, no storage condition
Procedure: Lots of 25% w/w BMS-986165 SDD with HPMCAS-H were assessed for physical and chemical stability. […] Dissolution performance in the microcentrifuge test was unchanged.
There was no evidence of crystallization by PXRD in any SDD after storage for up to 6 months at 40° C./75% RH open (FIG. 1A and FIG. 1B). DSC data indicated slight changes similar to those observed in 25% w/w BMS-986165 SDD after exposure to 50° C./75% RH or 40° C./75% RH but there was no trend with API loading and the results were considered to reflect an “ageing” or “annealing” effect rather than crystal formation. Scanning electron microscopy (SEM) images confirmed the presence of a single phase homogenous dispersion (FIG. 2A-C, FIG. 3A-C, FIG. 4A-C).

Row | solubility [1] | BMS-986165 (related substances, relative ret. time 1.00) [2] | Total impurities >LOQ [2] [%] | SMILES
1 | low | – | – | [2H]C([2H])([2H])NC(=O)c1nnc(NC(=O)C2CC2)cc1Nc1cccc(-c2ncn(C)n2)c1OC [BMS-986165 crystalline free base, 6-(cyclopropaneamido)-4-((2-methoxy-3-(1-methyl-1H-1,2,4-triazol-3-yl)phenyl)amino)-N-(methyl-d3)pyridazine-3-carboxamide]
2 | – | 99.48 | 0.52 | [2H]C([2H])([2H])NC(=O)c1nnc(NC(=O)C2CC2)cc1Nc1cccc(-c2ncn(C)n2)c1OC [BMS-986165, 6-(cyclopropaneamido)-4-((2-methoxy-3-(1-methyl-1H-1,2,4-triazol-3-yl)phenyl)amino)-N-(methyl-d3)pyridazine-3-carboxamide]
